Counter-ions that a name gives are not always drawn.
Test system: rabbits with normal intraocular pressure
Assay: Experiment 1: ocular hypotensive effect of eye drops (applanation pneumatonograph)
Assay type: in vivo, Male Dutch species coloured rabbits
Conditions: for Difference in IOP between the control and test eyes: 50 µl instilled
Protocol: The ocular hypotensive effect of the eye drops of this invention was investigated in rabbits. The same experiment was also conducted using a representative β-adrenergic blocking agent, and its ocular hypotensive effect was compared with that of eye drops of this invention. Methods: According to the formulations described in Examples 1, 2 and 3, three kinds of eye drops respectively containing 0.5, 0.05 and 0.005% of the compound (1) were prepared. As a negative control, eye drops not containing compound (1), which is eye drops described in Reference Example below, were used. The positive control was commercially available eye drops containing timolol maleate (0.5% equivalent of free base) as an active ingredient. Male Dutch species coloured rabbits (body weight: ca. 2 kg) with normal intraocular pressure were used in the experiment. Each of the test solutions (three kinds of eye drops containing 0.5, 0.05 or 0.005% of ifenprodil) (50 µl) was instilled into one eye of each rabbit, and the control solution free of ifenprodil (50 µl), the eye drops described in Reference Example, into the fellow eye which served as a control. For each solution, six rabbits were used. After anesthesia of the corneal surface by instillating 5 µl of 0.4% oxybuprocaine hydrochloride, the intraocular pressure was measured using an applanation pneumatonograph (Alcon) before and after the instillation of the test solution and control solution. Measurement of intraocular pressure after the instillation was conducted with one-hour intervals until six hours - nine hours post-instillation.

[1] = eye drops 0.5%, one hour after instillation, difference from control eye

| Structure (SMILES) | IOP reduction (eye drops 0.005%) | Difference in IOP between the control and test eyes (eye drops 0.005% free base, 1 hr) | Difference in IOP between the control and test eyes (eye drops 0.005% free base, 2 hr) | Difference in IOP between the control and test eyes (eye drops 0.005% free base, 4 hr) | Difference in IOP between the control and test eyes (eye drops 0.005% free base, 6 hr) | Difference in IOP between the control and test eyes (eye drops 0.05% free base, 1 hr) | Difference in IOP between the control and test eyes (eye drops 0.05% free base, 2 hr) | Difference in IOP between the control and test eyes (eye drops 0.05% free base, 4 hr) | Difference in IOP between the control and test eyes (eye drops 0.05% free base, 6 hr) | average IOP reduction (eye drops 0.05%, one hour after administration) | duration of ocular hypotensive effect (eye drops 0.5%) | time of maximal IOP reduction (eye drops 0.5%) | Difference in IOP between the control and test eyes (eye drops 0.5% free base, 1 hr) | Difference in IOP between the control and test eyes (eye drops 0.5% free base, 2 hr) | Difference in IOP between the control and test eyes (eye drops 0.5% free base, 4 hr) | Difference in IOP between the control and test eyes (eye drops 0.5% free base, 6 hr) | average IOP reduction [1] | average IOP reduction (eye drops 0.5%, two hours after administration) |
| --- | --- | --- | --- | --- | --- | --- | --- | --- | --- | --- | --- | --- | --- | --- | --- | --- | --- | --- |
| CC(C(O)c1ccc(O)cc1)N1CCC(Cc2ccccc2)CC1 (centres unmarked) [Compound (1), 2-(4-benzylpiperidino)-1-(4-hydroxyphenyl)-1-propanol] | produced IOP reduction which varies depending on concentration of compound (1) | -0.79 mmHg | -0.75 mmHg | -0.79 mmHg | -0.17 mmHg | -1.79 mmHg | -0.96 mmHg | -0.67 mmHg | -0.38 mmHg | 1.8 mmHg | retained for nine hours after instillation | one hour after instillation | -2.67 mmHg | -2.17 mmHg | -1.17 mmHg | -1.13 mmHg | 2.7 mmHg |  |
| CC(C)(C)NC[C@H](O)COc1nsnc1N1CCOCC1 [Timolol maleate, timolol maleate, reference compound] |  |  |  |  |  |  |  |  |  |  |  |  | -0.88 mmHg | -0.58 mmHg | -0.25 mmHg | -0.13 mmHg | 0.9 mmHg | 0.6 mmHg |
